Converted amounts (≈) assume the structure as drawn.
Tests used:
Streptococcus pneumoniae [1] = assay: Antibacterial activity against Streptococcus pneumoniae ATCC 49619 by microbroth dilution method; type: functional
Streptococcus pneumoniae [2] = assay: Antibacterial activity against Streptococcus pneumoniae 07P390 by microbroth dilution method; type: functional
Streptococcus pneumoniae [3] = assay: Antibacterial activity against Streptococcus pneumoniae PU09 by microbroth dilution method; type: functional
Streptococcus pyogenes = assay: Antibacterial activity against Streptococcus pyogenes 12-206 by microbroth dilution method; type: functional
Staphylococcus aureus [4] = assay: Antibacterial activity against Staphylococcus aureus 15B196 by microbroth dilution method; type: functional
Staphylococcus aureus [5] = assay: Antibacterial activity against Staphylococcus aureus PU32 by microbroth dilution method; type: functional
Haemophilus influenzae = assay: Antibacterial activity against Haemophilus influenzae ATCC 49247 by microbroth dilution method; type: functional
[6] = Stability in rat liver microsomes assessed as unchanged drug level at 1 uM by LC-MS/MS analysis; type: ADME, Microsome; settings: time 60 min, read-out: Stability
[7] = Stability in rat liver microsomes assessed as unchanged drug level at 1 uM after 60 mins by LC-MS/MS analysis; type: ADME, Microsome; settings: read-out: Stability
[8] = Half life in human liver microsomes at 1 uM by LC-MS/MS analysis; type: ADME, Microsome
[9] = Intrinsic clearance in human liver microsomes at 1 uM by LC-MS/MS analysis; type: ADME, Microsome; settings: read-out: CLH
[10] = test system: Mycoplasmoides pneumoniae; assay: Antibacterial activity against erythromycin-susceptible Mycoplasma pneumoniae ATCC 29342 by microbroth dilution method; type: functional
[11] = test system: Mycoplasmoides pneumoniae; assay: Antibacterial activity against erythromycin-resistant Mycoplasma pneumoniae A2058G by microbroth dilution method; type: functional
[12] = test system: Mycoplasmoides pneumoniae; assay: Antibacterial activity against erythromycin-resistant Mycoplasma pneumoniae A2059G by microbroth dilution method; type: functional
[13] = test system: Mycoplasmoides pneumoniae; assay: Antibacterial activity against erythromycin-resistant Mycoplasma pneumoniae A2058T by microbroth dilution method; type: functional

## CC[C@H]1OC(=O)[C@H](C)C(=O)[C@H](C)[C@@H](O[C@@H]2O[C@H](C)C[C@H](N(C)C)[C@H]2O)[C@](C)(OC)C[C@@H](C)C(=O)[C@H](C)[C@H]2N(CCCCc3ccc4c(=O)c(C(=O)O)cn(C5CC5)c4c3)C(=O)O[C@]12C
Streptococcus pneumoniae [1]
  MIC: ≤ 0.008 µg/mL
Streptococcus pneumoniae [2]
  MIC: 2 µg/mL (≈ 2.23 µM)
Streptococcus pneumoniae [3]
  MIC: 0.5 µg/mL (≈ 0.558 µM)
Streptococcus pyogenes
  MIC: 0.25 µg/mL (≈ 0.279 µM)
Staphylococcus aureus [4]
  MIC: 8 µg/mL (≈ 8.93 µM)
Staphylococcus aureus [5]
  MIC: 1 µg/mL (≈ 1.12 µM)
Haemophilus influenzae
  MIC: 4 µg/mL (≈ 4.46 µM)
[6]
  remaining at 1 h, 1 µM: 100%
[7]
  remaining at 1 h, 1 µM: 35.1%
[8]
  half-life at 1 µM: 39.1 min
[9]
  CLint scaled at 1 µM: 31.9 mL/min/kg
[10]
  MIC: 0.008 µg/mL (≈ 0.00893 µM)
[11]
  MIC: 32 µg/mL (≈ 35.7 µM)
[12]
  MIC: 32 µg/mL (≈ 35.7 µM)
[13]
  MIC: 16 µg/mL (≈ 17.9 µM)

## CCOc1ccc2ccc(=O)oc2c1
[6]
  remaining at 1 h, 1 µM: 0.695%
[7]
  remaining at 1 h, 1 µM: 8.69%
[8]
  half-life at 1 µM: 17.8 min
[9]
  CLint scaled at 1 µM: 70.2 mL/min/kg

## CC[C@H]1OC(=O)[C@H](C)C(=O)[C@H](C)[C@@H](O[C@@H]2O[C@H](C)C[C@H](N(C)C)[C@H]2O)[C@](C)(OC)C[C@@H](C)C(=O)[C@H](C)[C@H]2N(CCCCn3cnc(-c4cccnc4)c3)C(=O)O[C@]12C [TELITHROMYCIN]
Streptococcus pneumoniae [1]
  MIC: 0.008 µg/mL (≈ 0.00985 µM)
Streptococcus pneumoniae [2]
  MIC: 0.06 µg/mL (≈ 0.0739 µM)
Streptococcus pneumoniae [3]
  MIC: 1 µg/mL (≈ 1.23 µM)
Streptococcus pyogenes
  MIC: 0.12 µg/mL (≈ 0.148 µM)
Staphylococcus aureus [4]
  MIC: 64 µg/mL (≈ 78.8 µM)
Staphylococcus aureus [5]
  MIC: 0.5 µg/mL (≈ 0.616 µM)
Haemophilus influenzae
  MIC: 4 µg/mL (≈ 4.93 µM)
[6]
  remaining at 1 h, 1 µM: 93.2%
[7]
  remaining at 1 h, 1 µM: 26.3%
[8]
  half-life at 1 µM: 32.4 min
[9]
  CLint scaled at 1 µM: 38.4 mL/min/kg
[10]
  MIC: 0.008 µg/mL (≈ 0.00985 µM)
[11]
  MIC: 256 µg/mL (≈ 315 µM)
[12]
  MIC: 256 µg/mL (≈ 315 µM)
[13]
  MIC: 256 µg/mL (≈ 315 µM)

## CC[C@H]1OC(=O)[C@H](C)C(=O)[C@H](C)[C@@H](O[C@@H]2O[C@H](C)C[C@H](N(C)C)[C@H]2O)[C@](C)(OC)C[C@@H](C)C(=O)[C@H](C)[C@H]2N(CCCN3CCN(c4cc5c(cc4F)c(=O)c(C(=O)O)cn5C4CC4)CC3)C(=O)O[C@]12C
Streptococcus pneumoniae [1]
  MIC: 0.016 µg/mL (≈ 0.0163 µM)
Streptococcus pneumoniae [2]
  MIC: 0.12 µg/mL (≈ 0.122 µM)
Streptococcus pneumoniae [3]
  MIC: 1 µg/mL (≈ 1.02 µM)
Streptococcus pyogenes
  MIC: 1 µg/mL (≈ 1.02 µM)
Staphylococcus aureus [4]
  MIC: 64 µg/mL (≈ 65 µM)
Staphylococcus aureus [5]
  MIC: 1 µg/mL (≈ 1.02 µM)
Haemophilus influenzae
  MIC: 8 µg/mL (≈ 8.13 µM)
[6]
  remaining at 1 h, 1 µM: 95.1%
[7]
  remaining at 1 h, 1 µM: 65%
[8]
  half-life at 1 µM: 110 min
[9]
  CLint scaled at 1 µM: 11.3 mL/min/kg
[10]
  MIC: 0.008 µg/mL (≈ 0.00813 µM)
[11]
  MIC: 8 µg/mL (≈ 8.13 µM)
[12]
  MIC: 8 µg/mL (≈ 8.13 µM)
[13]
  MIC: 8 µg/mL (≈ 8.13 µM)

## CC[C@H]1OC(=O)[C@H](C)C(=O)[C@H](C)[C@@H](O[C@@H]2O[C@H](C)C[C@H](N(C)C)[C@H]2O)[C@](C)(OC)C[C@@H](C)C(=O)[C@H](C)[C@H]2N(CCCCCC#Cc3ccc4c(c3)c(=O)c(C(=O)O)cn4C3CC3)C(=O)O[C@]12C
Streptococcus pneumoniae [1]
  MIC: ≤ 0.008 µg/mL
Streptococcus pneumoniae [2]
  MIC: 32 µg/mL (≈ 34.3 µM)
Streptococcus pneumoniae [3]
  MIC: 1 µg/mL (≈ 1.07 µM)
Streptococcus pyogenes
  MIC: 2 µg/mL (≈ 2.14 µM)
Staphylococcus aureus [4]
  MIC: 128 µg/mL (≈ 137 µM)
Staphylococcus aureus [5]
  MIC: 8 µg/mL (≈ 8.56 µM)
Haemophilus influenzae
  MIC: 32 µg/mL (≈ 34.3 µM)

— ChEMBL document CHEMBL5120845, “Design and synthesis of novel macrolones bridged with linkers from 11,12-positions of macrolides” (Bioorg Med Chem Lett, 2022)
